Experimental findings from ChEMBL document CHEMBL3414510 (J Med Chem, 2015) are described below.

The subject of one data set is Liver. Nature of the data set: Metabolic stability in CD1 mouse liver microsomes after 30 mins by LC/MS analysis. It is filed as ADME. The note with it: 0.5 h. In general terms: Microsomes from liver hold many membrane-bound enzymes, among them those of drug oxidation.
A short description of data set [1]: Permeability across human Caco2 cells. It is filed as ADME, cell-based. The note with it: caco-2.
In a further data set the test system is Mus musculus. Nature of the data set: Clearance in Balb/C mouse at 5 mg/kg, iv and po relative to liver blood flow. It counts as ADME, organism-based. Set-up: dose 5 mg/kg, route oral. Conditions: in vivo.

On to `Cn1cc(CCn2cnc(-c3cnn(C)c3)c2-c2ccc(C#N)cc2)cn1`, for which, in the data set on Liver, the Stability entry is given as “Stable”. Further, the permeability result in data set [1] is “permeable”. In the data set with Mus musculus, the CL came out at 50%.
